In brackets after ≈: the same amount, converted by molar mass.
How the values were obtained:
Type in all cases: cell-based
A. baumannii 5075 [1] = assay: MIC, broth microdilution in M63 media
Method: (§1) Measurement of Minimum Inhibitory Concentrations (MIC). The MIC of compounds and select ed antibiotics against three strains of A. baumannii (5075, ATCC 17988, and ATCC 19606) were determined via the broth microdilution method according to Clinical and Laboratory Standard Instit ute (CLSI) guidelines,15 but culturing […]
(§2) To establish a 2-fold dilution series of compound, 985 μ L of diluted cells was mixed with 15 μ L of compound […]
(§3) dissolved in DMSO, such that the resultant solution had the highest concentration of compound or antibiotic tested and 1.5% DMSO. To carry out the serial dilution from the highest compound concentration, a 150 μ L solution of higher concentration compound or antibiotic was mixed with 150 μ L of cell suspension containing 1.5% DMSO in the wells of a 96 well plate.
(§4) Th e 96 well plate was in cubated for 20 hat 35 °C with continuous orbital shaking (205 cpm) in an Epoch2 microplate reader (BioTek), monitoring the growth by […]
(§5) following the OD600. […]
(§6) FFFFFF = MMMMMMAA iiii ccllccbbiiiicccciilliiMMMMMMAA+ MMMMMMBB iiii ccllccbbiiiicccciilliiMMMMMMBB S2 Time Kill Assays. Time-kill assays were performed with A. baumannii 507 5 by the broth macro- dilution method in M63- medium containing 1.5% DMSO. An overnight culture was diluted to approximately 5 x10^5 CFU/mL in fresh M63 media. The test solutions were prepared by adding compound (KM-5- 35, or KM-5- 25) dissolved in DMSO to 5 mL of diluted cell suspension to yield a solution of the desired compound concentration and 1.5% DMSO, or by the addition of antibiotic dissolved in water and a small volume of DMSO to produce the desired

A. baumannii ATCC 19606 = assay: MIC, broth microdilution in M63 media
Method: as §1, §2, §3, §4, §5, §6

A. baumannii ATCC 17978 = assay: MIC, broth microdilution in M63 media
Method: as §1, §2, §3, §4, §5, §6

A. baumannii 5075 [2] = assay: Compound intracellular accumulation in A. baumannii 5075; settings: cells treated with 30 µM compound
Method: (§7) Determination of Compound Intracellular Accumulation. These experiments were carri ed out as reported previously,16 with modifications. Starter cultures o f P. aeruginosa PAO1 or A. baumannii 5075 were centrifuged for 10 min at 3148 x g and 4 °C, resuspended in 5 mL of fresh LB, diluted to OD 600 = 0.03 in fresh LB media (250 mL), and then cultured at 35 °C and 220 rpm for 4 h. Th e resultant cul ture was diluted to OD600 = 0.4 in 250 mL LB and centrifuged at 4 °C and 3470 x g for 10 min. The cell pellet was resuspended in 20 mL of PBS and transfer red to a 50 mL conical tube, where it was centrifuged at 4 °C and 3148 x g for 20 min. The cell pellet was resuspended in 15 mL of PBS supplemented with 0.05% (w/v) HPMC and the suspension was divided equally into two new conical tubes. One of th e tubes was treated with 150 µL of DMSO (control), while the second tube was treated with 150 µL of compound in DMSO solution to produce a compound final concentration of 30 µM or 15 µM. The resultant mixtures were incubated at 37 °C and 220 rpm for 15 min, placed on ice for 1 min, and then centrifuged at 3148 x g rpm and 4 °C for 10 min. The cell pellet was resuspended in 7.5 mL of ice -cold PBS and vortexed (10 s, five t imes). 200 µL of the cell suspension was used to plate and enumerate viable cells, and 800 µL of the suspension was lay ered onto 700 µL of chilled silicon oil contained in 1.5 mL Eppendo rf tubes and then centrifuged at 4 °C ( 900 x g) for 10 min, then again at 16,200 x g for 5 min to allow pass ag e of the cell suspension through the silicon oil layer. The aqueous and oil layers were removed, and the cell pellet was washed twice in PBS (800 μ L), each time transferring the cell suspension to a new Eppendorf tube and then centrifuging at 16,200 x g. The cell pellet was lysed in 800 µL methanol by vortexing followed by 10 min incubationat room temperatur e. The lysate suspension was pelleted, the supernatant was transferred to a new Eppendorf tube and then placed into a vacuum concentrator (Eppendorf 5301 Vacufuge) to evaporate the methanol (4 h). The dried […]
(§8) cell lysate was resuspend ed in 600 µL of DMSO and centrifuged at 16,200 x g rpm for 5 min at room temperature.
(§9) The clarified supernatant was titrated with small volumes of 250 µM compound stock, measuring the fluorescen ce after the addition of each aliquot with the aid of a Cary Eclipse Fluorescence Spectrometer (Agilent). The compound concentration was determined utilizing the standard addition method,17 and compound accumulation is reported as nmol compound/1012 CFU/mL. […]
(§10) Eclipse) fluorescen ce sp ectrophotometer. The flu orescen ce intensity of th e treated sample (FI)Tr and that of the untreated control (FI)Un was normalized to the corresponding OD600 and the ratio (FI/OD600)Tr / (F I/ OD600)Un is […]
(§11) The determination for each of the compounds was carri ed out in 5 biological replicates.
(§12) Determination of Siderophores Secreted by A. baumannii . The chromo azurol S (CAS) solution was prepared as previously reported18 with some modifications. The blue dye solution (0.6 g/L CAS ( ACROS Organics), 100 μM FeCl3·6H2O, and 0.73 g/L hexadecyltrimethylammonium bromide (HDTMA, ACROS Organics) was autoclaved and stored in the dark. The MM9-PIPES buffer solution (3 g/L KH2PO4, 5 g/L NaCl, 10 g/L NH4C l, 32.24 g/L piperazine -1,4-bis-2- ethanesulfonic acid (PIPES , Sigma Aldrich), pH 6.75) was sterilized using a 0.22 µm syringe filter (VWR). Prior to every experimen t, blue dye solution (0.5 mL) was mixed with 4.5 mL of MM9-PIPES solution. An overnight culture of A. baumannii 5075 was diluted to OD600 = 0.0001 with modified M63 media (no citric acid) supplemented with 4 μ M Fe and transferred to a 96-well plate, wh ere it was cul tured for 20

P. aeruginosa PAO1 [3] = assay: Compound intracellular accumulation in P. aeruginosa PAO1; settings: cells treated with 30 µM compound
Method: as §7, §8, §9, §10, §11, §12

P. aeruginosa PAO1 [4] = assay: as above; settings: ‡ treatment with 15 µM compound
[5] = Acinetobacter baumannii, 5075, 20 h
[6] = Acinetobacter baumannii, ATCC19606, 20 h
[7] = Acinetobacter baumannii, ATCC17978, 20 h

SMILES	Intracell. Accum, A. baumannii 5075 (A. baumannii 5075 [2])	MIC (A. baumannii 5075 [1]; 20 h)	MIC (A. baumannii ATCC 19606; 20 h)	MIC (A. baumannii ATCC 17978; 20 h)	Intracell. Accum, P. aeruginosa PAO1 (P. aeruginosa PAO1 [3])	further results
O=C1NC(=O)c2c(NCc3cc(Cl)cc(O)c3O)cccc21 [SB-16-168]	–	–	–	–	–	MIC (A. baumannii 5075 [1]; [5]): 40 µM (≈ 12.7 µg/mL); MIC (A. baumannii ATCC 19606; [6]): > 40 µM; MIC (A. baumannii ATCC 17978; [7]): > 40 µM
O=C1NC(=O)c2c(NCc3c(O)cccc3F)cccc21 [EB-5-71]	495 ± 35 nmol/1012 CFU	75 µM (≈ 21.5 µg/mL)	75 µM (≈ 21.5 µg/mL)	75 µM (≈ 21.5 µg/mL)	–	–
O=C1NC(=O)c2c(NCc3c(O)cccc3Br)cccc21 [EB-5-72]	–	> 60 µM	> 60 µM	> 60 µM	–	–
O=C1NC(=O)c2c(NCc3ccccc3O)cccc21 [Analog 11, 4-((2-Hydroxybenzyl)amino)isoindoline-1,3-dione]	55 ± 15 nmol/1012 CFU	–	–	–	–	MIC (A. baumannii 5075 [1]; [5]): 80 µM (≈ 21.5 µg/mL); MIC (A. baumannii ATCC 19606; [6]): 80 µM (≈ 21.5 µg/mL); MIC (A. baumannii ATCC 17978; [7]): 120 µM (≈ 32.2 µg/mL)
O=C1NC(=O)c2c(NCc3cccc(F)c3O)cccc21 [EB-5-80]	44 ± 6 nmol/1012 CFU	> 100 µM	> 100 µM	> 100 µM	11 ± 3 nmol/1012 CFU	–
O=C1NC(=O)c2c(NCc3cccc(Br)c3O)cccc21 [EB-5-73]	201 ± 30 nmol/1012 CFU	> 40 µM	> 40 µM	40 µM (≈ 13.9 µg/mL)	34 ± 9 nmol/1012 CFU	–
O=C1NC(=O)c2c(NCc3cc(Br)cc(O)c3O)cccc21 [SB-16-136]	–	40 µM (≈ 14.5 µg/mL)	30 µM (≈ 10.9 µg/mL)	30 µM (≈ 10.9 µg/mL)	–	–
O=C1NC(=O)c2c(NCc3c(O)cccc3Cl)cccc21 [KM-5-29]	2614 ±134 nmol/1012 CFU	> 60 µM	> 60 µM	> 60 µM	351 ± 25 nmol/1012 CFU	–
O=C1NC(=O)c2c(NCc3cc(Br)ccc3O)cccc21 [KM-5-35, 4-((5-Bromo-2-hydroxybenzyl)amino)isoindoline-1,3-dione]	–	40 µM (≈ 13.9 µg/mL)	30 µM (≈ 10.4 µg/mL)	30 µM (≈ 10.4 µg/mL)	360 ± 22 nmol/1012 CFU	–
O=C1NC(=O)c2c(NCc3ccc4c(c3)COC4)cccc21 [SB-17-80]	–	–	–	–	–	MIC, A. baumannii 5075 (A. baumannii 5075 [1]; 20 h): Not active; MIC, A. baumannii 19606 (A. baumannii ATCC 19606; 20 h): Not active; MIC, A. baumannii 17978 (A. baumannii ATCC 17978; 20 h): Not active
Cc1cc(Br)cc(CNc2cccc3c2C(=O)NC3=O)c1O [SB-16-106]	–	20 µM (≈ 7.22 µg/mL)	30 µM (≈ 10.8 µg/mL)	15 µM (≈ 5.42 µg/mL)	–	Intracell. Accum, P. aeruginosa PAO1 (P. aeruginosa PAO1 [4]): 415 ± 141 nmol/1012 CFU
O=C1NC(=O)c2c(NCc3cc(Cl)ccc3O)cccc21 [KM-5-25, 4-((5-Chloro-2-hydroxybenzyl)amino)isoindoline-1,3-dione]	–	40 µM (≈ 12.1 µg/mL)	30 µM (≈ 9.08 µg/mL)	40 µM (≈ 12.1 µg/mL)	270 ± 48 nmol/1012 CFU	–
O=C1NC(=O)c2c(NCc3cc(Cl)c(O)cc3O)cccc21 [SB-16-160]	–	> 80 µM	> 80 µM	> 80 µM	–	–
O=C1NC(=O)c2c(NCc3cc(Br)cc(F)c3O)cccc21 [SB-16-118]	–	20 µM (≈ 7.3 µg/mL)	30 µM (≈ 11 µg/mL)	30 µM (≈ 11 µg/mL)	126 ± 40 nmol/1012 CFU	–
O=C1NC(=O)c2c(NCc3cccc(Cl)c3O)cccc21 [KM-5-30]	169 ± 62 nmol/1012 CFU	> 80 µM	> 80 µM	> 80 µM	42 ± 1 nmol/1012 CFU	–
CC(C)(C)c1ccc(O)c(CNc2cccc3c2C(=O)NC3=O)c1 [SB-16-53]	–	–	–	–	–	Intracell. Accum, P. aeruginosa PAO1 (P. aeruginosa PAO1 [4]): 263 ± 40 nmol/1012 CFU; MIC (A. baumannii 5075 [1]; [5]): 30 µM (≈ 9.73 µg/mL); MIC (A. baumannii ATCC 19606; [6]): 30 µM (≈ 9.73 µg/mL); MIC (A. baumannii ATCC 17978; [7]): 30 µM (≈ 9.73 µg/mL)
Cc1cc(Cl)cc(CNc2cccc3c2C(=O)NC3=O)c1O [SB-16-156]	–	> 40 µM	> 40 µM	> 40 µM	–	Intracell. Accum, P. aeruginosa PAO1 (P. aeruginosa PAO1 [4]): 165 ± 18 nmol/1012 CFU
O=C1NC(=O)c2c(NCc3cc(Br)c(F)cc3O)cccc21 [SB-16-112]	–	20 µM (≈ 7.3 µg/mL)	20 µM (≈ 7.3 µg/mL)	20 µM (≈ 7.3 µg/mL)	–	Intracell. Accum, P. aeruginosa PAO1 (P. aeruginosa PAO1 [4]): 457 ± 22 nmol/1012 CFU
Cc1cccc(CNc2cccc3c2C(=O)NC3=O)c1O [EB-5-70]	99 ± 15 nmol/1012 CFU	100 µM (≈ 28.2 µg/mL)	100 µM (≈ 28.2 µg/mL)	100 µM (≈ 28.2 µg/mL)	–	–
O=C1NC(=O)c2c(NCc3cc(F)ccc3O)ccc(Br)c21 [SB-16-67]	1173 ± 53 nmol/1012 CFU	40 µM (≈ 14.6 µg/mL)	30 µM (≈ 11 µg/mL)	20 µM (≈ 7.3 µg/mL)	187 ± 59 nmol/1012 CFU	–
O=C1NC(=O)c2c(NCc3cc(Br)c(O)cc3O)cccc21 [SB-16-137]	86 ± 23 nmol/1012 CFU	> 80 µM	> 80 µM	> 80 µM	33 ± 1 nmol/1012 CFU	–
O=C1NC(=O)c2c(NCc3cc(Br)cc(O)c3O)ccc(Br)c21 [SB-16-250]	–	> 20 µM	> 20 µM	> 20 µM	–	–
Cc1ccc(CNc2cccc3c2C(=O)NC3=O)c(O)c1 [EB-5-69]	193 ± 33 nmol/1012 CFU	80 µM (≈ 22.6 µg/mL)	80 µM (≈ 22.6 µg/mL)	80 µM (≈ 22.6 µg/mL)	52 ± 2 nmol/1012 CFU	–
O=C1NC(=O)c2c(NCc3cc(F)ccc3O)cccc21 [JAG-5-7]	157 ± 54 nmol/1012 CFU	–	–	–	28 ± 10 nmol/1012 CFU	MIC (A. baumannii 5075 [1]; [5]): 60 µM (≈ 17.2 µg/mL); MIC (A. baumannii ATCC 19606; [6]): 60 µM (≈ 17.2 µg/mL); MIC (A. baumannii ATCC 17978; [7]): 60 µM (≈ 17.2 µg/mL)
O=C1NC(=O)c2c(NCc3cccc4c3CCN4)cccc21 [SB-17-140]	–	–	–	–	–	MIC (A. baumannii 5075 [1]; [5]): > 100 µM; MIC (A. baumannii ATCC 19606; [6]): > 100 µM; MIC (A. baumannii ATCC 17978; [7]): > 100 µM
O=C1NC(=O)c2c(NCc3ccc(Br)cc3O)cccc21 [EB-5-61]	–	50 µM (≈ 17.4 µg/mL)	50 µM (≈ 17.4 µg/mL)	50 µM (≈ 17.4 µg/mL)	197 ± 17 nmol/1012 CFU	–

Source: paper PMC12261321, “Inhibitors of the Bacterioferritin Ferredoxin Complex Dysregulate Iron Homeostasis and Kill and Biofilm-Embedded Cells” (ACS Infectious Diseases, 2025)
